How the values were obtained:
Assay type in all cases: cell-based
[1] = test system: K. pneumoniae B-88 producing metallo beta-lactamase enzymes; test: Time kill study against K. pneumoniae B-88; conditions: for Effect on bacterial count (in words): summary of Table 1, alone or in combination
Experimental: (§1) In general, the antibacterial activity of compositions according to invention was studied by performing time kill studies. In a typical time kill study, the freshly grown cultures were diluted to the required cell density (initial starting inoculum) in cation adjusted Muller Hinton broth medium (BD, USA). The antibacterial agents (either alone or in combination) at the required concentrations were added into the culture-containing medium. The samples were incubated under shaking condition (120 rpm) at 37° C. Enumeration of viable bacterial count was done every 2 hour by diluting in normal saline and plating on to the Tryptic Soya Agar plates (BD, USA). The plates were incubated for 24 hours to arrive at a viable bacterial count. The results are expressed in terms of log10 CFU/ml. In general, the decrease of 1 log10 CFU/ml corresponds to 90% killing of bacteria. Similarly, 2 log10 CFU/ml reductions indicates to 99% killing of bacteria and 3 log10 CFU/ml reductions is equal to 99.9% killing of bacteria.

[2] = test system: E. coli 7MP producing Class A and Class C beta-lactamase enzymes; test: Time kill study against E. coli 7MP; conditions: for Effect on bacterial count (in words): alone or in combination
Experimental: as §1

[3] = test system: A. baumanni 13301 producing Carbapenem hydrolysing beta-lactamase enzymes; test: Time kill study against A. baumanni 13301; conditions: for Bacterial count (Log10 CFU/ml) 0 hours / Change in Log10 CFU/ml over 0 hour count after 24 hours / Bacterial count (Log10 CFU/ml) 2 hours / Bacterial count (Log10 CFU/ml) 4 hours / Bacterial count (Log10 CFU/ml) 6 hours / Bacterial count (Log10 CFU/ml) 8 hours / Bacterial count (Log10 CFU/ml) 24 hours: 4 mcg/ml alone; for Effect on bacterial count (in words): summary of Table 3, alone or in combination
Experimental: as §1

Structure (SMILES): O=C(NOC[C@@H]1CCCN1)[C@@H]1CC[C@@H]2CN1C(=O)N2OS(=O)(=O)O [Compound (D)]
- Bacterial count (Log10 CFU/ml) 0 hours ([1]; 2 mcg/ml alone): 7.28 Log10 CFU/ml
- Change in Log10 CFU/ml over 0 hour count after 24 hours ([1]; 2 mcg/ml alone): 1.26 Log10 CFU/ml
- Bacterial count (Log10 CFU/ml) 2 hours ([1]; 2 mcg/ml alone): 7.60 Log10 CFU/ml
- Bacterial count (Log10 CFU/ml) 4 hours ([1]; 2 mcg/ml alone): 8.26 Log10 CFU/ml
- Bacterial count (Log10 CFU/ml) 6 hours ([1]; 2 mcg/ml alone): 8.18 Log10 CFU/ml
- Bacterial count (Log10 CFU/ml) 24 hours ([1]; 2 mcg/ml alone): 8.54 Log10 CFU/ml
- Effect on bacterial count (in words) [1]: could not reduce the bacterial count
- Change in Log10 CFU/ml over 0 hour count after 24 hours ([2]; Table 2, 2 mcg/ml alone): 0.22 Log10 CFU/ml
- Bacterial count (Log10 CFU/ml) 2 hours ([2]; Table 2, 2 mcg/ml alone): 7.65 Log10 CFU/ml
- Bacterial count (Log10 CFU/ml) 4 hours ([2]; Table 2, 2 mcg/ml alone): 7.30 Log10 CFU/ml
- Bacterial count (Log10 CFU/ml) 6 hours ([2]; Table 2, 2 mcg/ml alone): 7.78 Log10 CFU/ml
- Bacterial count (Log10 CFU/ml) 24 hours ([2]; Table 2, 2 mcg/ml alone): 7.30 Log10 CFU/ml
- Effect on bacterial count (in words) ([2]; summary of Table 2): could not reduce the bacterial count
- Bacterial count (Log10 CFU/ml) 0 hours [3]: 6.88 Log10 CFU/ml
- Change in Log10 CFU/ml over 0 hour count after 24 hours [3]: 2.07 Log10 CFU/ml
- Bacterial count (Log10 CFU/ml) 2 hours [3]: 7.98 Log10 CFU/ml
- Bacterial count (Log10 CFU/ml) 4 hours [3]: 8.60 Log10 CFU/ml
- Bacterial count (Log10 CFU/ml) 6 hours [3]: 9.00 Log10 CFU/ml
- Bacterial count (Log10 CFU/ml) 8 hours [3]: 9.04 Log10 CFU/ml
- Bacterial count (Log10 CFU/ml) 24 hours [3]: 8.95 Log10 CFU/ml
- Effect on bacterial count (in words) [3]: could not reduce the bacterial count

Structure (SMILES): CC(C)(O/N=C(\C(=O)N[C@@H]1C(=O)N2C(C(=O)[O-])=C(C[N+]3(CCNC(=O)c4ccc(O)c(O)c4Cl)CCCC3)CS[C@H]12)c1csc(N)n1)C(=O)O [Compound of Formula (I), (6R,7R)-7-[(2Z)-2-(2-amino-1,3-thiazol-4-yl)-2-{[(2-carboxypropan-2-yl)oxy]imino}acetamido]-3-({1-[2-(2-chloro-3,4-dihydroxybenzamido)ethyl]pyrrolidin-1-ium-1-yl}methyl)-8-oxo-5-thia-1-azabicyclo[4.2.0]oct-2-ene-2-carboxylate]
- Bacterial count (Log10 CFU/ml) 0 hours ([1]; 0.25 mcg/ml alone): 7.28 Log10 CFU/ml
- Bacterial count (Log10 CFU/ml) 0 hours ([1]; 0.5 mcg/ml alone): 7.28 Log10 CFU/ml
- Change in Log10 CFU/ml over 0 hour count after 24 hours ([1]; 0.25 mcg/ml alone): −0.47 Log10 CFU/ml
- Change in Log10 CFU/ml over 0 hour count after 24 hours ([1]; 0.5 mcg/ml alone): −0.98 Log10 CFU/ml
- Bacterial count (Log10 CFU/ml) 2 hours ([1]; 0.25 mcg/ml alone): 6.74 Log10 CFU/ml
- Bacterial count (Log10 CFU/ml) 2 hours ([1]; 0.5 mcg/ml alone): 6.18 Log10 CFU/ml
- Bacterial count (Log10 CFU/ml) 4 hours ([1]; 0.5 mcg/ml alone): 5.85 Log10 CFU/ml
- Bacterial count (Log10 CFU/ml) 6 hours ([1]; 0.25 mcg/ml alone): 6.70 Log10 CFU/ml
- Bacterial count (Log10 CFU/ml) 6 hours ([1]; 0.5 mcg/ml alone): 6.30 Log10 CFU/ml
- Bacterial count (Log10 CFU/ml) 24 hours ([1]; 0.25 mcg/ml alone): 6.81 Log10 CFU/ml
- Bacterial count (Log10 CFU/ml) 24 hours ([1]; 0.5 mcg/ml alone): 6.30 Log10 CFU/ml
- Effect on bacterial count (in words) [1]: could not reduce the bacterial count
- Change in Log10 CFU/ml over 0 hour count after 24 hours ([2]; Table 2, 0.25 mcg/ml alone): 2.12 Log10 CFU/ml
- Change in Log10 CFU/ml over 0 hour count after 24 hours ([2]; Table 2, 0.5 mcg/ml alone): 2.12 Log10 CFU/ml
- Bacterial count (Log10 CFU/ml) 2 hours ([2]; Table 2, 0.25 mcg/ml alone): 7.60 Log10 CFU/ml
- Bacterial count (Log10 CFU/ml) 2 hours ([2]; Table 2, 0.5 mcg/ml alone): 7.18 Log10 CFU/ml
- Bacterial count (Log10 CFU/ml) 4 hours ([2]; Table 2, 0.25 mcg/ml alone): 9.11 Log10 CFU/ml
- Bacterial count (Log10 CFU/ml) 4 hours ([2]; Table 2, 0.5 mcg/ml alone): 7.74 Log10 CFU/ml
- Bacterial count (Log10 CFU/ml) 6 hours ([2]; Table 2, 0.25 mcg/ml alone): 9.20 Log10 CFU/ml
- Bacterial count (Log10 CFU/ml) 6 hours ([2]; Table 2, 0.5 mcg/ml alone): 9.18 Log10 CFU/ml
- Bacterial count (Log10 CFU/ml) 24 hours ([2]; Table 2, 0.25 mcg/ml alone): 9.20 Log10 CFU/ml
- Bacterial count (Log10 CFU/ml) 24 hours ([2]; Table 2, 0.5 mcg/ml alone): 9.20 Log10 CFU/ml
- Change in Log10 CFU/ml over 0 hour count after 8 hours ([2]; Table 5, 1 mcg/ml alone): 1.57 Log10 CFU/ml
- Bacterial count (Log10 CFU/ml) 2 hours ([2]; Table 5, 1 mcg/ml alone): 7.15 Log10 CFU/ml
- Bacterial count (Log10 CFU/ml) 4 hours ([2]; Table 5, 1 mcg/ml alone): 6.60 Log10 CFU/ml
- Bacterial count (Log10 CFU/ml) 6 hours ([2]; Table 5, 1 mcg/ml alone): 7.90 Log10 CFU/ml
- Bacterial count (Log10 CFU/ml) 8 hours ([2]; Table 5, 8 hours, 1 mcg/ml alone): 8.65 Log10 CFU/ml
- Effect on bacterial count (in words) ([2]; summary of Table 2): could not reduce the bacterial count
- Effect on bacterial count (in words) ([2]; summary of Table 5, throughout the duration of the study): did not reduce the bacterial count
- Bacterial count (Log10 CFU/ml) 0 hours [3]: 6.88 Log10 CFU/ml
- Change in Log10 CFU/ml over 0 hour count after 24 hours [3]: 2.22 Log10 CFU/ml
- Bacterial count (Log10 CFU/ml) 2 hours [3]: 4.85 Log10 CFU/ml
- Bacterial count (Log10 CFU/ml) 4 hours [3]: 4.02 Log10 CFU/ml
- Bacterial count (Log10 CFU/ml) 6 hours [3]: 5.18 Log10 CFU/ml
- Bacterial count (Log10 CFU/ml) 8 hours [3]: 7.5 Log10 CFU/ml
- Bacterial count (Log10 CFU/ml) 24 hours [3]: 9.10 Log10 CFU/ml
- Effect on bacterial count (in words) [3]: could not reduce the bacterial count
